Test results published in patent US20240043395A1, “COMPOUNDS AND COMPOSITIONS AS MODULATORS OF TLR SIGNALING” (Neuropore Therapies, Inc., priority 2020, published 2024).

Assays:
human TLR2 [1] = molecular target: T1, human TLR2 (Homo sapiens (Human), UniProt O60603); assay: HEK-Blue hTLR2 antagonism assay (SEAP reporter), agonist Pam3CSK4; type: cell-based; details: HEK-Blue hTLR2 cells; Pam3CSK4 (TLR1/2 agonist) at approx. 3×EC50; 18 h; 8-point dilutions
Description: (§1) Synthetic diacylated lipoprotein (Pam2CSK4, TLR2/6 agonist) and synthetic triacylated lipoprotein (Pam3CSK4, TLR1/2 agonist) were obtained from InvivoGen and were dissolved in endotoxin-free water to a concentration 1 mg/mL, vortexed until complete solubilization, and stored in aliquots at −20° C. Prior to addition to cells, an aliquot of the dissolved ligand was vortexed shortly and then was diluted in medium to 25 ng/mL Pam2CSK4 or 1000 ng/mL Pam3CSK4.
(§2) Test compounds were solubilized fresh to 10-20 mM stocks in DMSO and sonicated for 5-10 minutes in a water bath sonicator. Serial dilutions were prepared in DMSO, and then diluted in medium. The final concentration of DMSO used in the assay was 1%.
(§3) HEK-Blue hTLR2 reporter cells (InvivoGen) are HEK-293 cells stably expressing both the human TLR2 gene and a secreted embryonic alkaline phosphatase (SEAP) reporter construct downstream of NFκB promotor sites. HEK-Blue hTLR2 reporters were cultured according to manufacturer's protocol using Dulbecco's Modified Eagle Medium (DMEM; Gibco) containing 1× GlutaMax (Gibco), 10% heat-inactivated Fetal Bovine Serum (Gibco), Pen-Strep (50 U/mL penicillin, 50 μg/mL streptomycin, Gibco), 100 μg/mL Normocin (InvivoGen), and the selective antibiotic, lx HEK-Blue Selection (InvivoGen). Quanti-Blue reagent (InvivoGen) for detection and quantification of secreted alkaline phosphatase was dissolved in 100 mL of endotoxin-free water, warmed to 37° C. for 30 minutes and then filtered using a 0.2 μm membrane.
(§4) On day 1, 50 μL of each test compound dilution in duplicates or a vehicle control was added to each well of a 96-well plate followed by addition of 150 μL of HEK-Blue hTLR2 cell suspension (1×10^5 cells/well) and incubated at 37° C./5% CO2 for 2 h. Next, 50 μL of an approximate 3×EC50 concentration of each agonist (Pam2CSK4 or Pam3CSK4) was added to the wells containing test compounds or the vehicle control. The plates were then incubated at 37° C./5% CO2 for 18 h. For each assay run, non-treated HEK-Blue hTLR2 cells were treated with serial dilutions of agonists to determine EC50 values for the respective run.
(§5) On day 2, secreted alkaline phosphatase (SEAP) activity was detected in cell culture supernatants. In brief, 20 μL was collected from each well and transferred to a 96-well plate. Next, 200 μL of Quanti-Blue detection reagent was added to each well. Plates were incubated at room temperature for 15 min and SEAP activity was assessed by spectrophotometer OD reading at 655 nm. […] IC50 values were calculated based on 8-point dilutions for each compound.

human TLR2 [2] = molecular target: T1, human TLR2; assay: HEK-Blue hTLR2 antagonism assay (SEAP reporter), agonist Pam2CSK4; type: cell-based; details: HEK-Blue hTLR2 cells; Pam2CSK4 (TLR2/6 agonist) at approx. 3×EC50; 18 h; 8-point dilutions
Description: as §1, §2, §3, §4, §5

T1 sequence (O60603 21-784): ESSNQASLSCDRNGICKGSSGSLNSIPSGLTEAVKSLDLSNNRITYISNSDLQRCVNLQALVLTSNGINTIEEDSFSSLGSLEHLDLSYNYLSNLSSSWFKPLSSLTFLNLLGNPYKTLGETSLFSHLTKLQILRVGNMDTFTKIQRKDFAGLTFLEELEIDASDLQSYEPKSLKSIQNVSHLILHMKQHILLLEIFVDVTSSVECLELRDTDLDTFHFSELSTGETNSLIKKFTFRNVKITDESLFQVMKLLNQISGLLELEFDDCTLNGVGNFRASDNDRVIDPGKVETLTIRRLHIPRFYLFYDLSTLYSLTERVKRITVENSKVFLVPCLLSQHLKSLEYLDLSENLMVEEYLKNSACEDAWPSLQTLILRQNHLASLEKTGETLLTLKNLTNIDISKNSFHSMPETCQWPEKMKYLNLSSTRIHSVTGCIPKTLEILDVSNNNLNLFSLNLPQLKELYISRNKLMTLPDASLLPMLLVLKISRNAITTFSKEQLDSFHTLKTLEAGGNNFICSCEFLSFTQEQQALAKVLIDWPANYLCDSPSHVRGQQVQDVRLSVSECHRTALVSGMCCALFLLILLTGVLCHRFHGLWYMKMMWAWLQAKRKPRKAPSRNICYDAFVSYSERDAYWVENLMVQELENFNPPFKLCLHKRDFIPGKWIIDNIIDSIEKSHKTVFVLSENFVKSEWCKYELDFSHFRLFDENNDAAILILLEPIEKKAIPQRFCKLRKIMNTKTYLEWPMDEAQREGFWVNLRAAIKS

Compound	IC50 (human TLR2 [1])	IC50 (human TLR2 [2])
O=Cc1cc(C(=O)N2CCOC(c3ccc(N4CCCC4)cc3)C2)cc(F)c1O (racemic) [Compound 147, 3-fluoro-2-hydroxy-5-(2-(4-(pyrrolidin-1-yl)phenyl)morpholine-4-carbonyl)benzaldehyde]	1.6 µM	4.7 µM
O=Cc1cc(C(=O)N2CCOC(c3cccc(N4CCCC4)c3)C2)cc(F)c1O (racemic) [Compound 150, rac-3-fluoro-2-hydroxy-5-(2-(3-(pyrrolidin-1-yl)phenyl)morpholine-4-carbonyl)benzaldehyde]	3.1 µM	7.5 µM
O=Cc1cc(C(=O)N2CCCC2c2ccc(N3CCCC3)cc2)cc(F)c1O (racemic) [Compound 155, rac-3-fluoro-2-hydroxy-5-(2-(4-(pyrrolidin-1-yl)phenyl)pyrrolidine-1-carbonyl)benzaldehyde]	9.62 µM	15.7 µM
O=Cc1cc(C(=O)N2CCO[C@@H](c3ccc(N4CCCC4)cc3)C2)cc(F)c1O (single isomer, unassigned) [Compound 148]	1.88 µM	4.99 µM
O=Cc1cc(C(=O)N2CCO[C@H](c3ccc(N4CCCC4)cc3)C2)cc(F)c1O (single isomer, unassigned) [Compound 149]	1.74 µM	4.34 µM
O=Cc1cc(C(=O)N2CC[C@@H](c3ccc(N4CCCC4)cc3)C2)cc(F)c1O (single isomer, unassigned) [Compound 157]	2.2 µM	3 µM
O=Cc1cc(C(=O)Nc2nnc(N3CCCCC3)s2)cc(F)c1O [Compound 1, 3-fluoro-5-formyl-4-hydroxy-N-(5-(piperidin-1-yl)-1,3,4-thiadiazol-2-yl)benzamide]	21.8 µM	45.8 µM
O=Cc1cc(C(=O)Nc2ncc(N3CCCCC3)s2)cc(F)c1O [Compound 3, 3-fluoro-5-formyl-4-hydroxy-N-(5-(piperidin-1-yl)thiazol-2-yl)benzamide]	1.7 µM	2.3 µM
O=Cc1cc(C(=O)Nc2ncc(N3CCN(C4CC4)CC3)s2)cc(F)c1O [Compound 5, N-(5-(4-cyclopropylpiperazin-1-yl)thiazol-2-yl)-3-fluoro-5-formyl-4-hydroxybenzamide]	2.7 µM	5.3 µM
O=Cc1cc(C(=O)Nc2nc(-c3ccccc3)cs2)cc(F)c1O [Compound 6, 3-fluoro-5-formyl-4-hydroxy-N-(4-phenylthiazol-2-yl)benzamide]	3.3 µM	5.1 µM
O=Cc1cc(C(=O)Nc2cnc(N3CCCC3)s2)cc(F)c1O [Compound 8, 3-fluoro-5-formyl-4-hydroxy-N-(2-(pyrrolidin-1-yl)thiazol-5-yl)benzamide]	12.9 µM	17.7 µM
O=Cc1cc(C(=O)Nc2ncc(-c3ccc(N4CCCC4)cc3)s2)cc(F)c1O [Compound 13, 3-fluoro-5-formyl-4-hydroxy-N-(5-(4-(pyrrolidin-1-yl)phenyl)thiazol-2-yl)benzamide]	1 µM	1.5 µM
O=Cc1cc(C(=O)c2ccc(N3CCCC3)cc2)cc(F)c1O [Compound 14, 3-fluoro-2-hydroxy-5-(4-(pyrrolidin-1-yl)benzoyl)benzaldehyde]	18.7 µM	18.2 µM
O=Cc1cc(-c2scnc2-c2ccccc2)cc(F)c1O [Compound 18, 3-fluoro-2-hydroxy-5-(4-phenylthiazol-5-yl)benzaldehyde]	20.3 µM	22.2 µM
O=Cc1cc(C(=O)N2CCC(c3cccc(N4CCCC4)c3)CC2)cc(F)c1O [Compound 35, 3-fluoro-2-hydroxy-5-(4-(3-(pyrrolidin-1-yl)phenyl)piperidine-1-carbonyl)benzaldehyde]	8 µM	13.8 µM
O=Cc1cc(C(=O)Nc2ccc(N3CCCC3)nn2)cc(F)c1O [Compound 92, 3-fluoro-5-formyl-4-hydroxy-N-(6-(pyrrolidin-1-yl)pyridazin-3-yl)benzamide]	39 µM	59 µM
O=Cc1cc(C(=O)Nc2ncc(-c3ccc(C(F)(F)F)cc3)s2)cc(F)c1O [Compound 115, 3-fluoro-5-formyl-4-hydroxy-N-(5-(4-(trifluoromethyl)phenyl)thiazol-2-yl)benzamide]	0.6 µM	1 µM
O=Cc1cc(C(=O)Nc2nc(-c3ccccc3)ns2)cc(F)c1O [Compound 121, 3-fluoro-5-formyl-4-hydroxy-N-(3-phenyl-1,2,4-thiadiazol-5-yl)benzamide]	7.9 µM	15.9 µM
COc1cc(-c2cnn(-c3ccc(C(F)(F)F)cc3)c2)cc(C=O)c1O [Compound 128, 2-hydroxy-3-methoxy-5-(1-(4-(trifluoromethyl)phenyl)-1H-pyrazol-4-yl)benzaldehyde]	0.8 µM	0.7 µM
O=Cc1cc(-c2cnc(-c3ccc(N4CCCC4)nc3)s2)ncc1O [Compound 129, 5-hydroxy-2-(2-(6-(pyrrolidin-1-yl)pyridin-3-yl)thiazol-5-yl)isonicotinaldehyde]	0.4 µM	0.7 µM
O=Cc1cc(-c2nc(-c3ccc(N4CCCC4)nc3)ns2)cc(F)c1O [Compound 130, 3-fluoro-2-hydroxy-5-(3-(6-(pyrrolidin-1-yl)pyridin-3-yl)-1,2,4-thiadiazol-5-yl)benzaldehyde]	0.8 µM	1.3 µM
O=Cc1cc(C(=O)NCCc2ccc(N3CCCC3)cc2)cc(F)c1O [Compound 143, 3-fluoro-5-formyl-4-hydroxy-N-(4-(pyrrolidin-1-yl)phenethyl)benzamide]	12.3 µM	17 µM

Continued, values first:

IC50 (human TLR2 [1])	IC50 (human TLR2 [2])	Compound
7 µM	16.9 µM	C[C@H]1[C@H](c2ccc(N3CCCC3)cc2)OCCN1C(=O)c1cc(F)c(O)c(C=O)c1 (racemic) [Compound 151, rac-3-fluoro-2-hydroxy-5-((2S,3S)-3-methyl-2-(4-(pyrrolidin-1-yl)phenyl)morpholine-4-carbonyl)benzaldehyde]
5.7 µM	14.2 µM	COc1ccc(C2CN(C(=O)c3cc(F)c(O)c(C=O)c3)CCS2)cc1 (racemic) [Compound 152, rac-3-fluoro-2-hydroxy-5-(2-(4-methoxyphenyl)thiomorpholine-4-carbonyl)benzaldehyde]
3.2 µM	3.7 µM	O=Cc1cc(C(=O)N2CC[C@H](c3ccc(N4CCCC4)cc3)C2)cc(F)c1O (single isomer, unassigned) [Compound 156]
0.9 µM	4.1 µM	O=Cc1cc(C(=O)Nc2coc(-c3ccccc3)n2)cc(F)c1O [Compound 15, 3-fluoro-5-formyl-4-hydroxy-N-(2-phenyloxazol-4-yl)benzamide]
0.4 µM	0.9 µM	O=Cc1cc(C(=O)N2CCC(c3ccc(N4CCCC4)cc3)CC2)cc(F)c1O [Compound 34, 3-fluoro-2-hydroxy-5-(4-(4-(pyrrolidin-1-yl)phenyl)piperidine-1-carbonyl)benzaldehyde]
4.8 µM	6.2 µM	O=Cc1cc(C(=O)N2CCC(c3ccc(N4CCCC4)nc3)CC2)cc(F)c1O [Compound 37, 3-fluoro-2-hydroxy-5-(4-(6-(pyrrolidin-1-yl)pyridin-3-yl)piperidine-1-carbonyl)benzaldehyde]
3.5 µM	8.4 µM	O=Cc1cc(C(=O)N2CCC(c3ccc(N4CCCC4)cc3)C2)cc(F)c1O (stereo not shown) [Compound 82, 3-fluoro-2-hydroxy-5-(3-(4-(pyrrolidin-1-yl)phenyl)pyrrolidine-1-carbonyl)benzaldehyde]
3.8 µM	6.2 µM	O=Cc1cc(C(=O)N2CC(c3ccc(N4CCCC4)cc3)C2)cc(F)c1O [Compound 84, 3-fluoro-2-hydroxy-5-(3-(4-(pyrrolidin-1-yl)phenyl)azetidine-1-carbonyl)benzaldehyde]
18.1 µM	15.1 µM	O=Cc1cc(C(=O)N2CCCN(c3cccc(N4CCCC4)c3)CC2)cc(F)c1O [Compound 98, 3-fluoro-2-hydroxy-5-(4-(3-(pyrrolidin-1-yl)phenyl)-1,4-diazepane-1-carbonyl)benzaldehyde]
7.2 µM	14 µM	O=Cc1cc(C(=O)N2CCN(c3ccc(N4CCCC4)nc3)CC2)cc(F)c1O [Compound 140, 3-fluoro-2-hydroxy-5-(4-(6-(pyrrolidin-1-yl)pyridin-3-yl)piperazine-1-carbonyl)benzaldehyde]
